From patent US20260297042A1, “BIARYLAMIDE DERIVATIVES AND THEIR USE AS PKMYT1 INHIBITORS” (CANCER RESEARCH TECHNOLOGY LIMITED, priority 2023, published 2026)

Columns and labels:
Human PKMYT1 = biological target: T1, Human PKMYT1 (Homo sapiens, UniProt Q99640); test: PKMYT1 biochemical ADP-Glo enzymatic assay; settings: ADP-Glo
T1 construct: Human PKMYT1 75-362 was cloned as a TEV cleavable 6xHis fusion; 6xHis (TEV cleavable) (cleaved yes); made in house; host or cells: bacterial cells
T1 sequence (Q99640 75-362): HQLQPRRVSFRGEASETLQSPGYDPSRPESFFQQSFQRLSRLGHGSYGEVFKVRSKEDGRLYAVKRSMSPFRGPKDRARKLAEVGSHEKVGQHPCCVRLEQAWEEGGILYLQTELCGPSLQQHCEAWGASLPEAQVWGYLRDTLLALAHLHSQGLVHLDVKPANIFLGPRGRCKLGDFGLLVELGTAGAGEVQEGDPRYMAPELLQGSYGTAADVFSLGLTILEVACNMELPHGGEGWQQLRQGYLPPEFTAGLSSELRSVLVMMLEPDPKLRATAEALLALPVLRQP
Method in brief: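 IC50 values come from 10-point 3-fold series, with replicates required within 3-fold and r2 >0.9. ADP formed by PKMYT1 intrinsic ATPase (500 uM ATP, 60 min, 26° C.) was quantified by ADP-Glo luminescence. The enzyme was the TEV-cleaved kinase domain 75-362 at 15 nM, in HEPES pH 7.5 buffer.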

WEE1 = biological target: T2, WEE1 (Homo sapiens, UniProt P30291); test: Selectivity versus WEE1 assay (ADP-Glo enzymatic assay); type: biochemical; settings: for IC50: ADP-Glo; for PKMYT1 vs. WEE1 selectivity: fold difference in selectivity for PKMYT1 over WEE1
T2 construct: purchased Thermo Fisher PR7373A
T2 sequence (P30291 whole entry): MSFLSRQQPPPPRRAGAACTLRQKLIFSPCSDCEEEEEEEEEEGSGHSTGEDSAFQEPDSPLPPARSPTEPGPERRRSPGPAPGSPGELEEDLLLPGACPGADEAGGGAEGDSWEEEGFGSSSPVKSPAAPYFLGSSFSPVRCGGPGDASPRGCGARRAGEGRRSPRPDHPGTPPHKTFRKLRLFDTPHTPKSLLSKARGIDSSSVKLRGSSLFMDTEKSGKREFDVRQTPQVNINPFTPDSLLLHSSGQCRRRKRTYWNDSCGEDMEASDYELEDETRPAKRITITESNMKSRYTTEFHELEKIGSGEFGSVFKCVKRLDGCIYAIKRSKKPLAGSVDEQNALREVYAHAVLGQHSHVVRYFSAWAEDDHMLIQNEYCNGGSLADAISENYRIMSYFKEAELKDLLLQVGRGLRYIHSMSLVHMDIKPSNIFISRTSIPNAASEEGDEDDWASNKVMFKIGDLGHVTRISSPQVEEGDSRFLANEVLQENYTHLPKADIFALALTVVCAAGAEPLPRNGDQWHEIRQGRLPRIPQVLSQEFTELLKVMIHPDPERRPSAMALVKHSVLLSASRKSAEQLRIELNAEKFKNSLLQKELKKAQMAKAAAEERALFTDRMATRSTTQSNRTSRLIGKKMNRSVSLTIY
Method in brief: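 ADP-Glo luminescent read-out after a 60-min, 26 °C kinase reaction of 15 nM WEE1 with 30 µM ATP, in HEPES pH 7.5 buffer containing MgCl2, EGTA, Brij-35 and 1% DMSO. IC50 accepted only when replicate values agree within 3-fold and curve fit r2 exceeds 0.9.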

[1] = 15 nM PKMYT1 kinase domain, 500 µM ATP, 60 minutes at 26° C., banded
[2] = 15 nM WEE1, 60 minutes at 26° C., banded
[3] = banded, ">N" = at least in this band but could be higher
[4] = PKMYT1 kinase domain 15 nM, banded values

IC50 (Human PKMYT1; [1]) [nM] | IC50 (WEE1; [2]) [nM] | PKMYT1 vs. WEE1 selectivity (WEE1; [3]) | IC50 (Human PKMYT1; [4]) [nM] | IC50 (WEE1; WEE1 15 nM, banded values) [nM] | PKMYT1 vs. WEE1 selectivity (WEE1; banded) | SMILES
 |  |  | 50 to 1000 | > 11000 | X (100-<1000 fold) | Cc1ccc(O)c(C)c1NC(=O)c1cnc(Nc2nc3ccccc3s2)s1 [BAA-442, 2-(benzo[d]thiazol-2-ylamino)-N-(3-hydroxy-2,6-dimethylphenyl)thiazole-5-carboxamide]
 |  |  | 50 to 1000 | > 11000 | X (100-<1000 fold) | Cc1ccc(O)c(C)c1NC(=O)c1cnc(Nc2cccc3c2CCC3)s1 [BAA-443, 2-((2,3-dihydro-1H-inden-4-yl)amino)-N-(3-hydroxy-2,6-dimethylphenyl)thiazole-5-carboxamide]
 |  |  | < 50 | > 11000 | X (100-<1000 fold) | Cc1ccc(O)c(C)c1NC(=O)c1cnc(Nc2nn(C)c3cccc(F)c23)s1 [BAA-444, 2-((4-fluoro-1-methyl-1H-indazol-3-yl)amino)-N-(3-hydroxy-2,6-dimethylphenyl)thiazole-5-carboxamide]
 |  |  | 50 to 1000 | 1000 to 11000 | X (100-<1000 fold) | Cc1nc2cc(Nc3ncc(C(=O)Nc4c(C)ccc(O)c4C)s3)ccc2o1 [BAA-445, N-(3-hydroxy-2,6-dimethylphenyl)-2-((2-methylbenzo[d]oxazol-5-yl)amino)thiazole-5-carboxamide]
 |  |  | 50 to 1000 | > 11000 | X (100-<1000 fold) | CCOC(=O)c1oc(Nc2ncc(C(=O)Nc3c(C)ccc(O)c3C)s2)nc1C [BAA-446, ethyl 2-((5-((3-hydroxy-2,6-dimethylphenyl)carbamoyl)thiazol-2-yl)amino)-4-methyloxazole-5-carboxylate]
 |  |  | < 50 | > 11000 | Y (1000-5000 fold) | Cc1ccc(O)c(C)c1NC(=O)c1cnc(Nc2onc(C)c2C(N)=O)s1 [BAA-448, 5-((5-((3-hydroxy-2,6-dimethylphenyl)carbamoyl)thiazol-2-yl)amino)-3-methylisoxazole-4-carboxamide]
 |  |  | 50 to 1000 | > 11000 | W (10-<100 fold) | Cc1ccc(O)c(C)c1NC(=O)c1cnc(Nc2ncc(C(C)(C)C)o2)s1 [BAA-449, 2-((5-(tert-butyl)oxazol-2-yl)amino)-N-(3-hydroxy-2,6-dimethylphenyl)thiazole-5-carboxamide]
 |  |  | 50 to 1000 | > 11000 | X (100-<1000 fold) | Cc1ccc(O)c(C)c1NC(=O)c1cnc(Nc2n[nH]c3cc(F)cc(F)c23)s1 [BAA-452, 2-((4,6-difluoro-1H-indazol-3-yl)amino)-N-(3-hydroxy-2,6-dimethylphenyl)thiazole-5-carboxamide]
 |  |  | 50 to 1000 | > 11000 | X (100-<1000 fold) | Cc1ccc(O)c(C)c1NC(=O)c1cnc(Nc2n[nH]c3ccccc23)s1 [BAA-455, 2-((1H-indazol-3-yl)amino)-N-(3-hydroxy-2,6-dimethylphenyl)thiazole-5-carboxamide]

Continued, compound first:

SMILES | IC50 (Human PKMYT1; [1]) [nM] | IC50 (WEE1; [2]) [nM] | PKMYT1 vs. WEE1 selectivity (WEE1; [3]) | IC50 (Human PKMYT1; [4]) [nM] | IC50 (WEE1; WEE1 15 nM, banded values) [nM] | PKMYT1 vs. WEE1 selectivity (WEE1; banded)
Cc1ccc(O)c(C)c1NC(=O)c1cnc(Nc2nn(-c3ccc(C(F)(F)F)nc3)cc2Cl)s1 [BAA-382, 2-((4-chloro-1-(6-(trifluoromethyl)pyridin-3-yl)-1H-pyrazol-3-yl)amino)-N-(3-hydroxy-2,6-dimethylphenyl) thiazole-5-carboxamide] | 50 to 1000 | > 11000 | X (100-<1000 fold) |  |  | 
Cc1cn(-c2cncn2C)nc1Nc1ncc(C(=O)Nc2c(C)ccc(O)c2C)s1 [BAA-387, N-(3-hydroxy-2,6-dimethylphenyl)-2-((4-methyl-1-(1-methyl-1H-imidazol-5-yl)-1H-pyrazol-3-yl)amino)thiazole-5-carboxamide] | < 50 | 1000 to 11000 | X (100-<1000 fold) |  |  | 
Cc1c[nH]nc1Nc1ncc(C(=O)Nc2c(C)ccc(O)c2C)s1 [BAA-388, N-(3-hydroxy-2,6-dimethylphenyl)-2-((4-methyl-1H-pyrazol-3-yl)amino)thiazole-5-carboxamide] | < 50 | 1000 to 11000 | X (100-<1000 fold) |  |  | 
Cc1ccc(O)c(C)c1NC(=O)c1cnc(Nc2nn(-c3ccccc3)cc2C#N)s1 [BAA-389, 2-((4-cyano-1-phenyl-1H-pyrazol-3-yl)amino)-N-(3-hydroxy-2,6-dimethylphenyl)thiazole-5-carboxamide] | < 50 | > 11000 | Y (1000-5000 fold) |  |  | 
Cc1cn(-c2cnn(CCO)c2)nc1Nc1ncc(C(=O)Nc2c(C)ccc(O)c2C)s1 [BAA-395, N-(3-hydroxy-2,6-dimethylphenyl)-2-((1′-(2-hydroxyethyl)-4-methyl-1′H-[1,4′-bipyrazol]-3-yl)amino)thiazole-5-carboxamide] |  |  |  | < 50 | 1000 to 11000 | X (100-<1000 fold)
Cc1ccc(O)c(C)c1NC(=O)c1cnc(Nc2ncccc2Cl)s1 [BAA-400, 2-((3-chloropyridin-2-yl)amino)-N-(3-hydroxy-2,6-dimethylphenyl)thiazole-5-carboxamide] |  |  |  | < 50 | 1000 to 11000 | X (100-<1000 fold)
Cc1ccc(O)c(C)c1NC(=O)c1cnc(Nc2ncc(F)cc2Cl)s1 [BAA-404, 2-((3-chloro-5-fluoropyridin-2-yl)amino)-N-(3-hydroxy-2,6-dimethylphenyl)thiazole-5-carboxamide] |  |  |  | < 50 | > 11000 | Y (1000-5000 fold)
Cc1ccc(O)c(C)c1NC(=O)c1cnc(Nc2nc(Cl)ccc2C(F)(F)F)s1 [BAA-405, 2-((6-chloro-3-(trifluoromethyl)pyridin-2-yl)amino)-N-(3-hydroxy-2,6-dimethylphenyl)thiazole-5-carboxamide] |  |  |  | 50 to 1000 | > 11000 | X (100-<1000 fold)
Cc1ccc(O)c(C)c1NC(=O)c1cnc(Nc2ncccc2C#N)s1 [BAA-408, 2-((3-cyanopyridin-2-yl)amino)-N-(3-hydroxy-2,6-dimethylphenyl)thiazole-5-carboxamide] |  |  |  | 50 to 1000 | > 11000 | X (100-<1000 fold)
C#Cc1cccc(Nc2ncc(C(=O)Nc3c(C)ccc(O)c3C)s2)n1 [BAA-431, 2-((6-ethynylpyridin-2-yl)amino)-N-(3-hydroxy-2,6-dimethylphenyl)thiazole-5-carboxamide] |  |  |  | 50 to 1000 | > 11000 | X (100-<1000 fold)
Cc1nccc(Nc2ncc(C(=O)Nc3c(C)ccc(O)c3C)s2)n1 [BAA-434, N-(3-hydroxy-2,6-dimethylphenyl)-2-((2-methylpyrimidin-4-yl)amino)thiazole-5-carboxamide] |  |  |  | < 50 | > 11000 | Y (1000-5000 fold)
Cc1ccc(O)c(C)c1NC(=O)c1cnc(Nc2ccncn2)s1 [BAA-435, N-(3-hydroxy-2,6-dimethylphenyl)-2-(pyrimidin-4-ylamino)thiazole-5-carboxamide] |  |  |  | < 50 | > 11000 | Y (1000-5000 fold)
Cc1nc(Cl)cc(Nc2ncc(C(=O)Nc3c(C)ccc(O)c3C)s2)n1 [BAA-436, 2-((6-chloro-2-methylpyrimidin-4-yl)amino)-N-(3-hydroxy-2,6-dimethylphenyl)thiazole-5-carboxamide] |  |  |  | < 50 | > 11000 | Z (>5000 fold)
Cc1ccc(O)c(C)c1NC(=O)c1cnc(Nc2ncc(C(F)(F)F)o2)s1 [BAA-437, N-(3-hydroxy-2,6-dimethylphenyl)-2-((5-(trifluoromethyl)oxazol-2-yl)amino)thiazole-5-carboxamide] |  |  |  | 1000 to 11000 | > 11000 | W (10-<100 fold)
Cc1ccc(O)c(C)c1NC(=O)c1cnc(Nc2nc(C(F)(F)F)co2)s1 [BAA-438, N-(3-hydroxy-2,6-dimethylphenyl)-2-((4-(trifluoromethyl)oxazol-2-yl)amino) thiazole-5-carboxamide] |  |  |  | 1000 to 11000 | > 11000 | W (10-<100 fold)
Cc1ccc(O)c(C)c1NC(=O)c1cnc(Nc2noc(C)c2C)s1 [BAA-439, 2-((4,5-dimethylisoxazol-3-yl)amino)-N-(3-hydroxy-2,6-dimethylphenyl)thiazole-5-carboxamide] |  |  |  | < 50 | 1000 to 11000 | X (100-<1000 fold)
Cc1conc1Nc1ncc(C(=O)Nc2c(C)ccc(O)c2C)s1 [BAA-440, N-(3-hydroxy-2,6-dimethylphenyl)-2-((4-methylisoxazol-3-yl)amino)thiazole-5-carboxamide] |  |  |  | < 50 | 1000 to 11000 | X (100-<1000 fold)
